Test results as given in patent US12329769B2, “Use of Abelmoschi corolla extract in preparation of drug for treating fibrosis” (SUZHONG PHARMACEUTICAL GROUP CO., LTD., priority 2019, dated 2025).

How the values were obtained:
[1] = test system: fibrosis of NRK-49F cells stimulated by TGF-β1; experiment: In-vitro anti-fibrosis effect: WB of Collagen I and α-SMA in NRK-49F cells stimulated by TGF-β1; assay type: cell-based; conditions: 30 μM monomer constituent, added 30 minutes before TGF-β1, co-incubation 24 hours, FIG. 3
Experimental: NRK-49F cells were inoculated into a 6-well plate at a density of 5×10^5 cells/well, and cultured in a DMEM medium containing 10% fetal bovine serum for 16 hours. After adding 50 μg/mL Abelmoschi corolla extract and each elution fraction constituent of macroporous resin and 30 μM monomer constituent of Abelmoschus manihot for 30 minutes, 10 mg/mL TGF-β1 was added. After co-incubation for 24 hours, cell proteins were extracted for a WB experiment to detect expression of Collagen I and α-SMA proteins, so as to judge the in-vitro anti-fibrosis effects of the Abelmoschi corolla extract and each elution constituent of macroporous resin and the monomer constituent.

NRK-49F cells = experiment: MTT test of effect on activity of NRK-49F cells; assay type: cell-based; conditions: 30 μM monomer constituent, co-incubation 24 hours
Experimental: NRK-49F cells were inoculated into a 96-well plate at a density of 5×10^3 cells/well, and cultured in a DMEM medium containing 10% fetal bovine serum for 16 hours. 50 μg/mL gradient elution constituent solution of macroporous resin of an Abelmoschi corolla extract or 30 μM of monomer constituents of the Abelmoschi corolla extract were added. After co-incubation for 24 hours, an original culture solution was removed, and 100 μL of 0.5 mg/mL MTT was added into each well. After incubation in an incubator for 4 hours, a staining solution was removed, and 150 μL of DMSO was added for detection by a microplate reader.

| activity of the NRK-49F cells (MTT) (NRK-49F cells) | Structure (SMILES) | expression of Collagen I protein (WB) [1] | expression of α-SMA protein (WB) [1] |
| --- | --- | --- | --- |
|  | O=C(O)C1OC(Oc2c(O)cc(O)c3c(=O)c(OC4OC(CO)C(O)C(O)C4O)c(-c4ccc(O)c(O)c4)oc23)C(O)C(O)C1O [compound 6, Gossypetin-3-O-β-D-glucose-8-O-β-D-glucuronide] | significantly inhibit | significantly inhibit |
| significantly inhibit | O=c1c(O)c(-c2cc(O)c(O)c(O)c2)oc2cc(O)cc(O)c12 [compound 18, Myricetin] |  |  |
|  | O=c1c(O)c(-c2ccc(O)c(O)c2)oc2cc(O)cc(O)c12 [compound 20, Quercetin] | significantly inhibit | significantly inhibit |
